{"source": "patent US7465752B2", "about": "“Pentenoic acid derivatives, processes for the preparation thereof, pharmaceutical compositions comprising them, and therapeutic applications thereof” (Merck Patent GmbH, priority 2004, dated 2008)", "key": {"[1]": {"target": "chimeric protein PPARα-GaI4 (Homo sapiens, UniProt Q07869)", "sequence (Q07869 239-466 limits assumed, stated change not applied)": "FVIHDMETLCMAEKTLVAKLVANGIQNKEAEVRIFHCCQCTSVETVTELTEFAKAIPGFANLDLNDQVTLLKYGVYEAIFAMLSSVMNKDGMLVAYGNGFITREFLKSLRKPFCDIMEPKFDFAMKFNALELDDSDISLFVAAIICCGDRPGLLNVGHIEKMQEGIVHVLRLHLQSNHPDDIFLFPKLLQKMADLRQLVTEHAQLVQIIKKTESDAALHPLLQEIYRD", "details": "50 μM, 18 hours contact, CV-1 cells", "protocol": "(§1) The measurement of the PPAR activation was performed according to a lo technique described by Lehmann et al. (1995, J. Biol. Chem., 270, 12953-12956).\n(§2) CV-1 cells (monkey kidney cells) are co-transfected with an expression vector for the chimeric proteins PPARα-GaI4 or PPARγ-GaI4 and with a “reporter” plasmid that allows the expression of the luciferase gene placed under the control of a promoter comprising GaI4 response elements.\n(§3) The cells are plated into 96-well microplates and co-transfected using a commercial reagent with the reporter plasmid (pG5-tk-pGL3) and the expression vector for the chimeric protein (PPARα-GaI4 or PPARγ-GaI4). After incubating for 4 hours, whole culture medium (comprising 10% foetal calf serum) is added to the wells. After 24 hours, the medium is removed and replaced with whole medium comprising the test products (50 μM final). The products are left in contact with the cells for 18 hours. The cells are then lysed and the luciferase activity is measured using a luminometer."}, "[2]": {"target": "chimeric protein PPARγ-GaI4 (Homo sapiens, UniProt P37231)", "sequence (P37231 238-503 limits assumed, change not shown)": "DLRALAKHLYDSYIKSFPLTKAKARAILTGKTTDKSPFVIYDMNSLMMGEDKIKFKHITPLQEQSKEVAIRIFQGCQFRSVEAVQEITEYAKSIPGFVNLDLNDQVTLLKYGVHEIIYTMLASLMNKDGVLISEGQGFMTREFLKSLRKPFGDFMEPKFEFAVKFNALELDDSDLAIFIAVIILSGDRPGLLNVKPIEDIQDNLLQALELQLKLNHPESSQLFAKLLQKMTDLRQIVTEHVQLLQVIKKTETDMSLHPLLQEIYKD", "details": "50 μM, 18 hours contact, CV-1 cells", "protocol": "as §1, §2, §3"}, "[3]": {"test_system": "GaI4 alone", "details": "vector expressing GaI4 alone, in the presence of the product", "protocol": "as §2, §3"}, "[4]": {"test_system": "db/db mice", "details": "100 mg/kg/day orally for 15 days", "protocol": "The antidiabetic and hypolipidaemiant activity of the compounds was determined orally on db/db mice.\nNine-week-old db/db mice are treated orally for 15 days with the compound of Example 6 (100 mg/kg/day). Each group studied comprises seven animals. After treatment for 15 days, retro-orbital samples are taken under mild anaesthesia and after fasting for four hours.\nThe following parameters were measured:\nAssay of the glycaemia (glucose oxidase) and of the lipid parameters on the sera at D15 (COBAS): triglycerides, total cholesterol (CHOL), HDL cholesterol (HDL-C) and free fatty acids (FFA) (BioMérieux and Waco Chemicals assay kit).\nThe measurements reported represent mean values±standard error."}, "[5]": {"details": "serum at D15, fasted 4 hours, mean ± standard error"}}, "data": [{"smiles": "O=C(O)[C@@H](CC=Cc1ccccc1)Oc1ccc(-c2cc3ccccc3s2)cc1", "note": "(racemic) [Example 6, (R,S)-2-{[4-(benzo[b]thiophen-2-yl)phenyl]oxy}-5-phenylpent-4-enoic acid]", "values": [{"measurement": "PPAR activation factor (reporter gene expression relative to control cells)", "setting": "[1]", "value": 7}, {"measurement": "PPAR activation factor (reporter gene expression relative to control cells)", "setting": "[2]", "value": 21}, {"measurement": "luciferase activity in absence of the PPAR α or γ ligand binding domain", "setting": "[3]", "value": "zero"}, {"measurement": "FFA, % var. (percentage of variation versus control)", "setting": "[4]; D15, not significant", "value": "−10% (ns)"}, {"measurement": "CHOL, % var. (percentage of variation versus control)", "setting": "[4]; D15, p < 0.01 versus control", "value": "−20% (**)"}, {"measurement": "Glycaemia, % var. (percentage of variation versus control)", "setting": "[4]; D15, p < 0.01 versus control", "value": "−50% (**)"}, {"measurement": "HDL-C, % var. (percentage of variation versus control)", "setting": "[4]; D15, p < 0.01 versus control", "value": "−25% (**)"}, {"measurement": "Triglycerides, % var. (percentage of variation versus control)", "setting": "[4]; D15, p < 0.05 versus control", "value": "−31% (*)"}, {"measurement": "CHOL (total cholesterol)", "setting": "[4]; [5]", "value": "2.98 ± 0.25", "unit": "mM"}, {"measurement": "FFA (free fatty acids)", "setting": "[4]; [5]", "value": "0.78 ± 0.18", "unit": "mM"}, {"measurement": "Glycaemia", "setting": "[4]; [5]", "value": "14.93 ± 4.29", "unit": "Mm"}, {"measurement": "HDL-C", "setting": "[4]; [5]", "value": "2.31 ± 0.20", "unit": "Mm"}, {"measurement": "Triglycerides", "setting": "[4]; [5]", "value": "1.47 ± 0.59", "unit": "mM"}]}]}
